Patent US11358962B2, “2-hetaryl imidazol[1,2-a]pyridine derivatives” (Hoffmann-La Roche Inc., priority 2013, dated 2022)
Structures can show the parent of a compound that is named as a salt.

System: native tau aggregates
Test: TAU radioligand in vitro displacement assay ([3H]T808, autoradiography on human AD brain sections)
Format: binding
Settings: compound 10 nM, radioligand [3H]T808 10 nM
Text: TAU Radioligand-In-Vitro Displacement Assay
This in vitro binding assay assesses the affinity of compounds for native tau aggregates.
AD human brains are purchased from Banner Sun Health Research Institute (Sun City, Ariz., USA). Pathological diagnosis of AD is made according to standard NIA-Reagan Institute criteria based on neuropathological data. The radioligand [^3H]T808 was synthesized in-house ([^3H]-2-[4-(2-Fluoro-ethyl)-piperidin-1-yl]-benzo[4,5]imidazo[1,2-a]pyrimidine, radiochemical purity 99.0%). As a reference cold T808 is used (2-[4-(2-Fluoro-ethyl)-piperidin-1-yl]-benzo[4,5]imidazo[1,2-a]pyrimidine). For the autoradiography FujiFilm Imaging Plates (BAS-IP TR 2025) are exposed to the sections and read with a FujiFilm IP reader (BAS-5000).
Ten μm thick human AD brain sections are generated with a cryostat (Leica CM3050) at −17° C. chamber temperature and −15° C. object temperature. Sections are transferred to Histobond+ microscope slides (Marienfeld Laboratory Glasware). After drying for 3 hours at room temperature the sections are stored at −20° C. The sections are incubated with the radioligand (10 nM) and the respective cold compound (at various concentrations) in 50 mM Tris buffer, pH 7.4 at room temperature for 30 min. After washing 3× 10 min at 4° C. in 50 mM Tris buffer, pH 7.4 and 3 quick dips in H2O dist. at 4° C. the sections are dried at 4° C. for 3 h. The sections are placed in a FujiFilm Cassette (BAS 2025), exposed with an Imaging Plate for five days and afterwards scanned with a resolution of […].
The signal intensity (Dens−PSL/mm2) in the region of interest (ROI) of the autoradiogram is quantified with the software MCID analysis (version 7.0, Imaging Research Inc.). The specific binding (SB) of [^3H]T808 binding in absence or in presence of a compound is calculated by subtracting the non-specific binding signal in the white matter, thus yielding SB[3H]T808 only and SBcompound. The % displacement by the various compounds is calculated as following: % displacement=100−(SBcompound/SB[3H]T808 only)*100. Validation Data
In each experiment cold T808 is used as a positive internal control. Co-incubation of equimolar amounts of hot and cold T808 is expected to reduce specific binding by approximately 50%.

First: CN(C)c1ccn2cc(-c3ccc(OCF)cc3)nc2c1 [Example 18, [2-(4-Fluoromethoxy-phenyl)-imidazo[1,2-a]pyridin-7-yl]-dimethyl-amine]
Second: COc1ccc(-c2cn3ccc(N4CCCC4)cc3n2)cc1 [Example 11, 2-(4-Methoxy-phenyl)-7-pyrrolidin-1-yl-imidazo[1,2-a]pyridine]
The “% displacement of [3H]T808 (10 nM) at 10 nM” value (“% displacement … at 10 nM” below) of the first is higher: 46% for the first, 27% for the second.

Compared with `CO[C@@H]1CCN(c2ccn3cc(-c4ccc(C)cc4)nc3c2)C1` [Example 56, 7-((R)-3-Methoxy-pyrrolidin-1-yl)-2-p-tolyl-imidazo[1,2-a]pyridine], `CNc1ccn2cc(-c3cccc(OC)c3)nc2c1` [Example 44, [2-(3-Methoxy-phenyl)-imidazo[1,2-a]pyridin-7-yl]-methyl-amine] is higher in “% displacement … at 10 nM” value: 28% for the first, 29% for the second.

Compared with `CC(=O)O.CCOc1ccc(-c2cn3ccc(NC)cc3n2)cc1` [Example 93, N-[2-(4-Ethoxy-phenyl)-imidazo[1,2-a]pyridin-7-yl]-methyl-amine acetic acid adduct], `COc1ccc(-c2cn3ccc(N(C)C)cc3n2)cc1` [Example 20, [2-(4-Methoxy-phenyl)-imidazo[1,2-a]pyridin-7-yl]-dimethyl-amine] is lower in “% displacement … at 10 nM” value: 39% for the first, 35% for the second.

Going from `COc1ccc(-c2cn3ccc(N4CCC(F)CC4)cc3n2)cc1` [Example 14, 7-(4-Fluoro-piperidin-1-yl)-2-(4-methoxy-phenyl)-imidazo[1,2-a]pyridine] to `CNc1ccn2cc(-c3nccs3)nc2c1` [Example 104, Methyl-(2-thiazol-2-yl-imidazo[1,2-a]pyridin-7-yl)-amine], the “% displacement … at 10 nM” value falls from 26% to 10%.

First: 2-Benzo[1,3]dioxol-5-yl-7-[4-(2-fluoro-ethyl)-piperidin-1-yl]-imidazo[1,2-a]pyridine [Example 21]
Second: CNc1ccn2cc(-c3ccc4c(c3)OCCO4)nc2c1 [Example 19, [2-(2,3-Dihydro-benzo[1,4]dioxin-6-yl)-imidazo[1,2-a]pyridin-7-yl]-methyl-amine]
The “% displacement … at 10 nM” value of the first is lower: 7% for the first, 37% for the second.

Compared with `FCCCOc1ccc(-c2cn3ccc(N4CCC4)cc3n2)cc1` [Example 125, 7-(Azetidin-1-yl)-2-[4-(3-fluoropropoxy)phenyl]imidazo[1,2-a]pyridine], `FCCOc1ccc(-c2cn3ccc(N4CCC4)cc3n2)cc1` [Example 106, 7-(Azetidin-1-yl)-2-[4-(2-fluoroethoxy)phenyl]imidazo[1,2-a]pyridine] is higher in “% displacement … at 10 nM” value: 32% for the first, 36% for the second.

Going from `CNc1ccn2cc(-c3cccnc3)nc2c1` [Example 126, Methyl-(2-pyridin-3-yl-imidazo[1,2-a]pyridin-7-yl)-amine] to `CNc1ccn2cc(-c3ccc(C)c(OC)c3)nc2c1` [Example 108, 2-(3-methoxy-4-methylphenyl)-N-methylimidazo[1,2-a]pyridin-7-amine], the “% displacement … at 10 nM” value rises from 12% to 26%.

Compared with `CNc1ccn2cc(-c3cccc(CO)c3)nc2c1` [Example 123, [3-[7-(Methylamino)imidazo[1,2-a]pyridin-2-yl]phenyl]methanol], `CNc1ccn2cc(-c3ccc(C)cc3)nc2c1` [Example 28, N-Methyl-(2-p-tolyl-imidazo[1,2-a]pyridin-7-yl)-amine] is higher in “% displacement … at 10 nM” value: 23% for the first, 57% for the second.

Compared with `CNc1ccn2cc(-c3ccc(C)o3)nc2c1` [Example 115, Methyl-[2-(5-methyl-furan-2-yl)-imidazo[1,2-a]pyridin-7-yl]-amine], `Cc1ccc(-c2cn3ccc(N(C)C)cc3n2)cc1` [Example 27, N,N-Dimethyl-(2-p-tolyl-imidazo[1,2-a]pyridin-7-yl)-amine] is lower in “% displacement … at 10 nM” value: 58% for the first, 52% for the second.

Compared with `CN(C)c1ccc(-c2cn3ccc(N(C)CCF)cc3n2)cc1` [Example 30, 2-(4-(Dimethylamino)phenyl)-N-(2-fluoroethyl)-N-methylimidazo[1,2-a]pyridin-7-amine], `FCOc1ccc(-c2cn3ccc(NC4CC4)cc3n2)cc1` [Example 80, Cyclopropyl-[2-(4-fluoromethoxy-phenyl)-imidazo[1,2-a]pyridin-7-yl]-amine] is higher in “% displacement … at 10 nM” value: 23% for the first, 34% for the second.

First: Br.CN(C)c1ccn2cc(-c3cccc(O)c3)nc2c1 [Example 82, 3-(7-Dimethylamino-imidazo[1,2-a]pyridin-2-yl)-phenol hydrobromide]
Second: Cc1ccc(-c2cn3ccc(NCCF)cc3n2)cc1C [Example 72, [2-(3,4-Dimethyl-phenyl)-imidazo[1,2-a]pyridin-7-yl]-(2-fluoro-ethyl)-amine]
The “% displacement … at 10 nM” value of the first is higher: 49% for the first, 25% for the second.

Going from `COc1cccc(-c2cn3ccc(N4CCC4)cc3n2)c1` [Example 91, 7-(azetidin-1-yl)-2-(3-methoxyphenyl)imidazo[1,2-a]pyridine] to `Cc1ccc(-c2cn3ccc(N4CCOCC4)cc3n2)cc1` [Example 36, 7-Morpholin-4-yl-2-p-tolyl-imidazo[1,2-a]pyridine], the “% displacement … at 10 nM” value falls from 39% to 23%.

First: CN(C)c1ccn2cc(-c3ccccc3)nc2c1 [Example 3, N,N-Dimethyl-2-phenylimidazo[1,2-a]pyridin-7-amine]
Second: CNc1ccn2cc(-c3cccc(COC)c3)nc2c1 [Example 130, 2-[3-(Methoxymethyl)phenyl]-N-methyl-imidazo[1,2-a]pyridine-7-amine HCl adduct]
The “% displacement … at 10 nM” value of the first is higher: 59% for the first, 40% for the second.

First: CNc1ccn2cc(-c3ccc(NCCF)cc3)nc2c1 [Example 131, 2-(4-(2-fluoroethylamino)phenyl)-N-methylimidazo[1,2-a]pyridin-7-amine]
Second: CNc1ccn2cc(-c3sccc3Br)nc2c1 [Example 111, N-[2-(3-Bromo-thiophen-2-yl)-imidazo[1,2-a]pyridin-7-yl]-methyl-amine]
The “% displacement … at 10 nM” value of the first is higher: 43% for the first, 17% for the second.

Going from `CCc1ccc(-c2cn3ccc(NC)cc3n2)cc1` [Example 98, N-[2-(4-Ethyl-phenyl)-imidazo[1,2-a]pyridin-7-yl]-methyl-amine] to `Cc1ccc(-c2cn3ccc(N4CCC4)cc3n2)cc1` [Example 54, 7-Azetidin-1-yl-2-p-tolyl-imidazo[1,2-a]pyridine], the “% displacement … at 10 nM” value falls from 38% to 30%.

First: Oc1ccc(-c2cn3ccc(N4CCC4)cc3n2)cc1 [Example 40, 4-(7-Azetidin-1-yl-imidazo[1,2-a]pyridin-2-yl)-phenol]
Second: COc1ccc(-c2cn3ccc(N4CC[C@@H](F)C4)cc3n2)cc1 [7 (R), (R)-7-(3-Fluoropyrrolidin-1-yl)-2-(4-methoxyphenyl)imidazo[1,2-a]pyridine]
The “% displacement … at 10 nM” value of the first is higher: 37% for the first, 11% for the second.

Compared with `CNc1ccn2cc(-c3cnn(C)c3)nc2c1` [Example 129, Methyl-[2-(1-methyl-1H-pyrazol-4-yl)-imidazo[1,2-a]pyridin-7-yl]-amine], `CNc1ccn2cc(-c3cccc(OCF)c3)nc2c1` [Example 133, 2-(3-(fluoromethoxy)phenyl)-N-methylimidazo[1,2-a]pyridin-7-amine] is lower in “% displacement … at 10 nM” value: 50% for the first, 40% for the second.

Compared with `CNc1ccn2cc(-c3ccc4c(c3)OCO4)nc2c1` [Example 37, (2-Benzo[1,3]dioxol-5-yl-imidazo[1,2-a]pyridin-7-yl)-methyl-amine], `CN(C)c1ccn2cc(-c3cccc(OCF)c3)nc2c1` [Example 78, [2-(3-Fluoromethoxy-phenyl)-imidazo[1,2-a]pyridin-7-yl]-dimethyl-amine] is lower in “% displacement … at 10 nM” value: 60% for the first, 53% for the second.

With `FCCNc1ccn2cc(-c3ccc4c(c3)OCO4)nc2c1` [Example 51, (2-Benzo[1,3]dioxol-5-yl-imidazo[1,2-a]pyridin-7-yl)-(2-fluoro-ethyl)-amine] the “% displacement … at 10 nM” value was 35%.

Same assay, conditions: compound 1 uM, radioligand [3H]T808 10 nM

In the case of `CN(C)c1ccn2cc(-c3ccccc3)nc2c1` [Example 3, N,N-Dimethyl-2-phenylimidazo[1,2-a]pyridin-7-amine], the “% displacement of [3H]T808 (10 nM) at 1 uM” value was 92%.
